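Test compounds were applied to cells in 96-well plates for 48 hours at 5 doses. GI50 marks 50% less growth.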 Calls of active or inactive are those of the source. Rule as the data show it: active = GI50 up to about 1.1 µM and inactive = higher. Square brackets hold non-standard residues; d marks the D form. Peptide text beside a SMILES is read from it. * marks the point of attachment. AllylGly = C=CC[CH](N)C(=O)O; Boc = CC(C)(C)OC(=O)*; OtBu = CC(C)(C)O*
Columns and labels:
Test in all cases: inhibition of tumour cell growth, NCI panel, 48 h
[1] = tested on: COLO 205
[2] = tested on: A549
[3] = tested on: NCI-H23
[4] = tested on: SR
[5] = tested on: KM12
[6] = tested on: EKVX
[7] = tested on: MOLT-4
[8] = tested on: NCI-H460
[9] = tested on: SW-620
[10] = tested on: OVCAR-3
[11] = tested on: RPMI-8226
[12] = tested on: UACC-62
[13] = tested on: SK-MEL-5
[14] = tested on: HT-29
[15] = tested on: DU-145
[16] = tested on: SF-539
[17] = tested on: NCI-H226
[18] = tested on: SNB-75
[19] = tested on: HCT-116
[20] = tested on: SK-MEL-28

SMILES | GI50 [1] | GI50 [2] | GI50 [3] | GI50 [4] | GI50 [5] | GI50 [6] | GI50 [7] | GI50 [8] | GI50 [9] | GI50 [10] | GI50 [11] | GI50 [12] | GI50 [13] | GI50 [14] | GI50 [15] | GI50 [16] | GI50 [17] | GI50 [18] | GI50 [19] | GI50 [20]
O=C(c1ccc(Cl)c(Cl)c1)N(C(=O)N1CCN(c2ccccc2)CC1)S(=O)(=O)c1ccccc1 | > 100 µM (inactive) | > 100 µM (inactive) | 37.5 µM (inactive) | 20.7 µM (inactive) | > 100 µM (inactive) | > 100 µM (inactive) | 12.9 µM (inactive) | 68.7 µM (inactive) | 36.1 µM (inactive) | 29.6 µM (inactive) | 32.6 µM (inactive) | 32.8 µM (inactive) | 28.2 µM (inactive) | 46.7 µM (inactive) | > 100 µM (inactive) | 41.2 µM (inactive) | 24.2 µM (inactive) | 91.4 µM (inactive) | 29.8 µM (inactive) | > 100 µM (inactive)
COc1ccc(NC/C=C/C(=C/COC(C)=O)OC(C)=O)cc1 | 1.88 µM (inactive) | 15.3 µM (inactive) | 2.06 µM (inactive) | 0.514 µM (active) | 0.448 µM (active) | 2.03 µM (inactive) | 4.75 µM (inactive) | 2.08 µM (inactive) | 1.69 µM (inactive) | 2 µM (inactive) | 0.252 µM (active) | 3.82 µM (inactive) | 15.3 µM (inactive) | 2.19 µM (inactive) | 3.11 µM (inactive) | 2 µM (inactive) | 19.3 µM (inactive) | 7.23 µM (inactive) | 1.81 µM (inactive) | 1.87 µM (inactive)
CCOP1(=O)CC(C)=C(Cl)C(O)C1 (stereo not given) | > 100 µM (inactive) | > 100 µM (inactive) | > 100 µM (inactive) | > 100 µM (inactive) | > 100 µM (inactive) | > 100 µM (inactive) | > 100 µM (inactive) | > 100 µM (inactive) | > 100 µM (inactive) | > 100 µM (inactive) | > 100 µM (inactive) | > 100 µM (inactive) | > 100 µM (inactive) | > 100 µM (inactive) | > 100 µM (inactive) | > 100 µM (inactive) | > 100 µM (inactive) | 40.3 µM (inactive) | > 100 µM (inactive) | > 100 µM (inactive)
COC(=O)C1=C(OC(=O)/C=C/c2ccccc2)C(C(=O)OC)[C@@]2(O)[C@@H](C(=O)OC)[C@H](C)C[C@@H]1[C@@H]2C(=O)OC (stereo not given in full) | 28.8 µM (inactive) | 15.3 µM (inactive) | 17.3 µM (inactive) | > 100 µM (inactive) | 27.9 µM (inactive) | 15.5 µM (inactive) | > 100 µM (inactive) | 17 µM (inactive) | 28.3 µM (inactive) | 19.9 µM (inactive) | 8.47 µM (inactive) | 12.6 µM (inactive) | 26.9 µM (inactive) | 24.7 µM (inactive) | 18 µM (inactive) | 19.8 µM (inactive) | 41.1 µM (inactive) | 19.4 µM (inactive) | 24.1 µM (inactive) | 28.8 µM (inactive)
CCOC(=O)Nc1nc2cc(Cn3cccc3)ccc2[nH]1 | 1.84 µM (inactive) | 1.22 µM (inactive) | 4.82 µM (inactive) | 0.735 µM (active) | 0.853 µM (active) | 27.7 µM (inactive) | 0.64 µM (active) | 0.802 µM (active) | 0.564 µM (active) | 1.13 µM (inactive) | 0.925 µM (active) | 0.828 µM (active) | 0.51 µM (active) | 0.65 µM (active) | 1.78 µM (inactive) | 0.865 µM (active) | 15.8 µM (inactive) | 0.356 µM (active) | 1.02 µM (active) | 4.89 µM (inactive)
OCC1OC(n2cnc3c(SCc4ccccc4)ncnc32)C(O)C1O (stereo not given) | 14 µM (inactive) | 26.3 µM (inactive) | 4.86 µM (inactive) | 2.9 µM (inactive) | > 100 µM (inactive) | > 68.5 µM (inactive) | 0.773 µM (active) | > 44.7 µM (inactive) | 21.6 µM (inactive) | 6.61 µM (inactive) | 19.4 µM (inactive) | 98.9 µM (inactive) | > 100 µM (inactive) | 5.52 µM (inactive) | 5.35 µM (inactive) | > 100 µM (inactive) | > 67.3 µM (inactive) | > 100 µM (inactive) | 5.45 µM (inactive) | > 100 µM (inactive)
c1ccc(C2(c3cc4ccccc4[nH]3)OCCO2)cc1 | 27.9 µM (inactive) | 39.4 µM (inactive) | > 100 µM (inactive) | 22.4 µM (inactive) | 37.8 µM (inactive) | 23.9 µM (inactive) | 11.6 µM (inactive) | 36.9 µM (inactive) | 24 µM (inactive) | 53.5 µM (inactive) | 27.3 µM (inactive) | 38.8 µM (inactive) | 23.1 µM (inactive) | 26.1 µM (inactive) | 65.3 µM (inactive) | > 100 µM (inactive) | 36.6 µM (inactive) | > 100 µM (inactive) | 37.8 µM (inactive) | 28.2 µM (inactive)
Cc1ccc2c3ccc4c(c3n(C)c2c1)C(=O)C=CC4=O | 2.5 µM (inactive) | > 10 µM (inactive) | > 9.23 µM (inactive) | 1.42 µM (inactive) | > 10 µM (inactive) | > 10 µM (inactive) | 0.475 µM (active) | > 10 µM (inactive) | 1.74 µM (inactive) | 2.52 µM (inactive) | 2.39 µM (inactive) | > 8.22 µM (inactive) | > 10 µM (inactive) | > 10 µM (inactive) | > 10 µM (inactive) | > 5.98 µM (inactive) | > 10 µM (inactive) | > 10 µM (inactive) | 2.33 µM (inactive) | > 6.01 µM (inactive)
CCN(CC)CCC(=O)c1ccc(Cl)c(Cl)c1 | 27.2 µM (inactive) | > 100 µM (inactive) | > 10 µM (inactive) | 24.3 µM (inactive) | 34.6 µM (inactive) | > 100 µM (inactive) | 19.9 µM (inactive) | > 100 µM (inactive) | 19.7 µM (inactive) | > 10 µM (inactive) | 3.61 µM (inactive) | 14.8 µM (inactive) | 20.1 µM (inactive) | 32.3 µM (inactive) | 67.1 µM (inactive) | > 10 µM (inactive) | > 100 µM (inactive) | 27.7 µM (inactive) | 27.5 µM (inactive) | 16.6 µM (inactive)
c1csc(-c2cscc2-c2ccsc2)c1 | > 100 µM (inactive) | 47.9 µM (inactive) | 35.3 µM (inactive) | 26.6 µM (inactive) | 32.1 µM (inactive) | 41.2 µM (inactive) | 26.2 µM (inactive) | 62.2 µM (inactive) | 62.2 µM (inactive) | 18.4 µM (inactive) | 34 µM (inactive) | 70.3 µM (inactive) | 75.9 µM (inactive) | > 84.9 µM (inactive) | > 100 µM (inactive) | > 53.2 µM (inactive) | > 43.5 µM (inactive) | > 52.1 µM (inactive) | 41.2 µM (inactive) | > 100 µM (inactive)
C=CCC(NC(=O)C(CC(=O)OC(C)(C)C)NC(=O)OC(C)(C)C)C(=O)OC (stereo not given) (Boc-Asp(OtBu)-[AllylGly]-OMe; configuration not given here) | 21.1 µM (inactive) | > 100 µM (inactive) | > 94.8 µM (inactive) | 37.9 µM (inactive) | > 55.2 µM (inactive) | > 100 µM (inactive) | > 49.9 µM (inactive) | > 100 µM (inactive) | 56.1 µM (inactive) | 24.7 µM (inactive) | 32.4 µM (inactive) | 48.3 µM (inactive) | 27.6 µM (inactive) | > 100 µM (inactive) | > 100 µM (inactive) | > 100 µM (inactive) | > 100 µM (inactive) | 97.9 µM (inactive) | 71.1 µM (inactive) | 47.4 µM (inactive)
O=C(O)CNC(=O)CO/N=C1/C(=C2/C(=O)Nc3ccccc32)Nc2ccccc21 | 46.2 µM (inactive) | 86.5 µM (inactive) | > 100 µM (inactive) | 38.5 µM (inactive) | 4.9 µM (inactive) | 94.6 µM (inactive) | 70.3 µM (inactive) | > 100 µM (inactive) | > 100 µM (inactive) | 42.2 µM (inactive) | > 100 µM (inactive) | > 100 µM (inactive) | 54.2 µM (inactive) | > 100 µM (inactive) | > 100 µM (inactive) | > 100 µM (inactive) | > 100 µM (inactive) | > 100 µM (inactive) | > 100 µM (inactive) | > 100 µM (inactive)
C(/Cc1ccc2c(c1)OCO2)=N\N=C1NCCN1 | > 100 µM (inactive) | 73.8 µM (inactive) | > 100 µM (inactive) | 73.5 µM (inactive) | > 100 µM (inactive) | 61.2 µM (inactive) | 52.6 µM (inactive) | 47.8 µM (inactive) | > 100 µM (inactive) | > 100 µM (inactive) | 83.2 µM (inactive) | > 100 µM (inactive) | 47.3 µM (inactive) | 57.9 µM (inactive) | > 100 µM (inactive) | 79.3 µM (inactive) | 33.2 µM (inactive) | 33.7 µM (inactive) | 58.9 µM (inactive) | > 100 µM (inactive)

From ChEMBL document CHEMBL1201862, “PubChem BioAssay data set” (2004)
